Ki data for 9 molecules are collected here from ChEMBL document CHEMBL1144624, “1,2,3-Triazolylalkylribitol derivatives as nucleoside hydrolase inhibitors” (Bioorg Med Chem Lett, 2007).

The test has as its target T1, IAG-nucleoside hydrolase (Trypanosoma vivax, UniProt Q9GPQ4).
T1 sequence (Q9GPQ4 whole entry): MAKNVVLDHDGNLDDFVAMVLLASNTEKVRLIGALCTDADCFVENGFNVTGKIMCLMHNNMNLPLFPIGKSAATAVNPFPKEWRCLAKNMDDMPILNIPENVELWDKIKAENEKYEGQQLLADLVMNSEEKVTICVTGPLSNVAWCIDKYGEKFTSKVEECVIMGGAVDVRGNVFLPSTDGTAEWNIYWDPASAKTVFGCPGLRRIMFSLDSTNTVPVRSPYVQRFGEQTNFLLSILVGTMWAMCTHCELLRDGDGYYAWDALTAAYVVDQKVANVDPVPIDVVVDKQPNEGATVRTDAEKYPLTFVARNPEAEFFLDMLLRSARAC
The test is described as follows: Inhibition of Trypanosoma vivax IAG-nucleoside hydrolase.
As to `Cc1c(-c2ccccc2)nnn1C[C@@H]1O[C@H](CO)[C@@H](O)[C@H]1O`, the Ki was 87 µM. The result for `OC[C@H]1O[C@@H](CCn2cc(-c3ccccc3)nn2)[C@H](O)[C@@H]1O` reads 21 µM. The result for `Cc1nnn(C[C@@H]2O[C@H](CO)[C@@H](O)[C@H]2O)c1-c1ccccc1` reads 520 µM; that for `Cc1nnn(CC[C@@H]2O[C@H](CO)[C@@H](O)[C@H]2O)c1-c1ccccc1`, 32 µM; that for `[N-]=[N+]=NCC[C@@H]1O[C@H](CO)[C@@H](O)[C@H]1O`, 5600 µM. The result for `CCc1nnn(CC[C@@H]2O[C@H](CO)[C@@H](O)[C@H]2O)c1CC` reads 63 µM; that for `Cc1c(-c2ccccc2)nnn1CC[C@@H]1O[C@H](CO)[C@@H](O)[C@H]1O`, 2.3 µM. As to `OC[C@H]1O[C@@H](CCn2cc(-c3ccccn3)nn2)[C@H](O)[C@@H]1O`, the inhibition constant Ki was 23 µM.

Molecule `OC[C@H]1O[C@@H](CCn2nncc2-c2ccccc2)[C@H](O)[C@@H]1O` showed an inhibitory constant (Ki) of 680 µM.

One may read the Ki as the dissociation constant of the complex between target and ligand, obtained from inhibition or displacement.
